{"source": "patent US20170112792A1", "about": "“ENHANCED ATRA-RELATED COMPOUNDS DERIVED FROM STRUCTURE-ACTIVITY RELATIONSHIPS AND MODELING FOR INHIBITING PIN1” (Beth Israel Deaconess Medical Center, Inc., priority 2014, published 2017)", "key": {"[1]": {"test_system": "Pin1 and PML-RARα in NB4 cells", "test": "immunoblot of Pin1 and PML-RARα in APL NB4 cells", "assay_type": "cell-based, human", "experimental": "(§2) For immunoprecipitation and immunoblotting in the examples below, cells were polyethylenimine (PEI)- or lipofemamine-transfected with 8 μg of various plasmids, incubated in 10 cm dishes for 24 hours, and subsequently treatment with drugs as needed. […] After centrifugation at 13,000 g for 10 minutes, one tenth of the supernatant was stored as input, and the remainder was incubated 12 hours with M2 Flag agarose (Sigma). After brief centrifugation, immunoprecipitates were collected, extensively washed with the aforementioned lysis buffer twice, suspended in 2×SDS sample buffer (100 mM Tris-HCl, pH 6.8, 4% SDS, 5% β-mercaptoethanol, 20% glycerol, and 0.1% bromphenol blue), boiled for 10 minutes, and subjected to immunoblotting analysis. […] After electrophoresis, gel was transferred to nitrocellulose membranes using a semidry transfer cell. The transblotted membrane was washed twice with Tris-buffered saline containing 0.1% Tween 20 (TBST). After blocking with TBST containing 5% bovine serum albumin (BSA) for 1 hour, the membrane was incubated with the appropriate primary antibody (diluted 1:1000) in 2% BSA-containing TBST at 4° C. overnight. After incubation with the primary antibody, the membrane was washed three times with TBST for a total of 30 minutes followed by incubation with horseradish peroxidase (HRP)-conjugated goat anti-rabbit or anti-mouse IgG (diluted 1:2500) for 1 hour at room temperature. After three extensive washes with TBST for a total of 30 minutes, the immunoblots were visualized by enhanced chemiluminescence."}, "GST-FKBP12": {"molecular_target": "GST-FKBP12 (Homo sapiens, UniProt P62942)", "sequence (P62942 whole entry)": "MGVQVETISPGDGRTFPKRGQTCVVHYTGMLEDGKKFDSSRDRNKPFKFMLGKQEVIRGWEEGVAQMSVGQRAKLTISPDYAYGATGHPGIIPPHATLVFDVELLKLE", "test": "chymotrypsin coupled PPlase activity assay, FKBP12", "assay_type": "biochemical"}, "Pin1 and PML-RARα": {"test_system": "Pin1 and PML-RARα", "test": "Pin1 and PML-RARα immunostaining in bone marrow of APL patients", "experimental": "Tissue samples were washed with PBS and fixed with 4% paraformaldehyde at room temperature for 20 minutes, followed by permeabilization and blocking with PBS containing 0.1% Triton X-100 and 5% FBS for 1 hour. After another wash with PBS, immunostaining was performed by incubating the cells with mouse anti-Pin1 (1:1000), or rabbit anti-PML (Santa Cruz; 1:100) primary antibodies at 4° overnight. Primary antibodies were diluted in PBS containing 0.1% Triton X-100, 0.2% BSA, 0.5 mM PMSF, and 1 mM dithiothreitol. […] Samples were nuclear counterstained with 4,6-diamidino-2-phenylindole (DAPI), mounted and visualized with a LSM510 confocal imaging system.\nBone marrow aspirates were obtained with informed consent from the iliac crest of patients in whom the diagnosis of acute promyelocytic leukemia was suspected based on the morphological evaluation of peripheral blood smear. […] Samples tested positive for the PML/RARα rearrangement by RT-PCR."}, "Pin1 [2]": {"test_system": "Pin1", "test": "Pin1 protein level, mRNA and stability in MEFs (immunoblot, RT-PCR, CHX chase)", "assay_type": "cell-based, mouse", "method": "RNA from cells was extracted with the Total RNA isolation mini kit (Agilent). cDNA was prepared with transcriptor first strand cDNA synthesis kit (Roche) and PCR was carried out with iQ SYBR Green Supermix (Bio-Rad) or SYBR Green PCR Master Mix (Applied Blosystems). 1 μl cDNA was used for each RT-PCR reaction. Samples were run on the QIAGEN Rotor-Gene Q real-time cycler or the Applied Biosystems StepOnePlus Real Time PCR instrument. GAPDH was used as an internal control. Analysis was performed with the ^ΔΔCt method. The following primers were used: […]"}, "SKBR3 cells": {"test_system": "SKBR3 cells", "test": "foci formation assay with Pin1 overexpression"}, "GST-cyclophilin": {"test_system": "GST-cyclophilin", "test": "chymotrypsin coupled PPlase activity assay, cyclophilin"}, "DC2.4 cells": {"test_system": "DC2.4 cells", "test": "IL-33-induced gene expression in DC2.4 cells expressing IRAKM or mutants", "assay_type": "cell-based, mouse", "text": "In the left panels, western blots show protein levels of IRAKM, Pin1 and tubulin. The right panels show the relative gene expression of IL-6, CXCL2, CSF3 and CCL5 in the different samples normalized to actin."}, "MRL/lpr lupus prone mice": {"test_system": "MRL/lpr lupus prone mice", "test": "MRL/lpr lupus prone mice"}, "[3]": {"conditions": "humans; cited from earlier work"}, "cyclin D1 promoter": {"test_system": "cyclin D1 promoter", "test": "cyclin D1 promoter luciferase activity with Pin1 overexpression", "conditions": "72 hours"}, "[4]": {"test_system": "Pin1 and its substrate oncogenes and tumor suppressors", "test": "immunoblot of Pin1 and its substrate proteins in breast cells", "experimental": "as §2"}, "Pin1 [5]": {"molecular_target": "T1, Pin1 (Homo sapiens, UniProt Q13526)", "T1 construct": "His6 (N); made in house; host or cells: E. coli (inferred: pET28, IPTG induction, LB culture; BL21(DE3) is printed only for the WW domain)", "test": "photoaffinity labeling of Pin1 with [3H]ATRA", "assay_type": "binding", "conditions": "read-out: equilibrium dissociation constant Kd", "method": "[…] of Pin1 was incubated in microcentrifuge tubes with a series of concentrations of all-trans-[11,12-^3H]-retinoic acid (PerkinElmer, 43.7 Ci/mmol) in 20 μl of the FP assay buffer at 23° C. with agitation for 2 hours in the dark. The caps of the microcentrifuge tubes were opened, and the samples were placed on ice and exposed to an Electrophoresis System 365/254 nm UV hand lamp (Fisher Scientific) suspended 6 cm above the surface of the liquid for 15 minutes. The samples were boiled in SDS sample buffer and subsequently separated on standard SDS/PAGE gels. The gels were dried and then used for fluorography at −80° C. for 5 days and quantified using Quantity One from BioRad."}, "GST-Pin1 [6]": {"molecular_target": "T2, GST-Pin1 (Homo sapiens, UniProt Q13526)", "T2 sequence (Q13526 whole entry)": "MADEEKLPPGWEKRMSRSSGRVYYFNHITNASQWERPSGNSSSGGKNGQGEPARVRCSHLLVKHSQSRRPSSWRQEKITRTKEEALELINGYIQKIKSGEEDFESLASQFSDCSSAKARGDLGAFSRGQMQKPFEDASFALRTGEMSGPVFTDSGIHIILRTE", "test": "fluorescence polarization (FP) pTide competition assay / FP-HTS", "text": "This sequence was optimized for solubility and binding to GST-PPI. […] Measurements of fluorescence polarization and fluorescence absorbance were made in black 384-well plates (Corning) using a Synergy II plate reader. Compounds were transferred to plates using a custom-built Seiko pin-transfer robot at the Institute for Chemistry and Cell Biology at Harvard Medical School. The assay can tolerate up to 10%/o DMSO.\nMolecules that compete with pTide for binding to the active site, e.g., Pin1 substrates, were detected under equilibrium conditions. A Z score was used to identify and rank those molecules that were most competitive with pTide (e.g., that have higher binding affinity). A Z score is defined as Z=(x−μ)/σ, where x is a raw score, μ is the mean of the population, and σ is the standard deviation of the population. Molecules with the most negative Z scores represent those with the highest Pin1 binding affinity. The Z′ value for this assay was around 0.70 and was consistent for day-to-day performance, with a coefficient of variation in the range of 4-5%.\nA lower value of Ki is indicative of higher association and, accordingly, higher affinity of the substrate to the protein."}, "[7]": {"test_system": "Pin1 WT and Pin1 KO mouse embryonic fibroblasts (MEFs)", "test": "cell growth of Pin1 WT and KO MEFs", "experimental": "For cell growth assays described below, cells were seeded in a density of 3000 cells per well in 96-well flat-bottomed plates, and incubated for 24 h in 10% FBS-supplemented DMEM culture medium. […] Control cells received DMSO at a concentration equal to that in drug-treated cells. After 72 hours, the number of cells was counted after trypsin digestion, or medium containing 0.5 mg/ml 3-(4,5-dimethylthiazol-2-yl)-2,5-diphenyl-2H-tetrazolium bromide was added to each well for 2 hours of incubation at 37° C., followed by removal of the media before the addition of 200 μl DMSO. Absorbance was determined at 570 nm."}, "[8]": {"test_system": "APL cells isolated from hCG-PML-RARα transgenic mice", "conditions": "same regimens"}, "[9]": {"test_system": "NIH3T3 cells stably expressing Flag-tagged Pin1", "test": "centrosome amplification induced by Pin1 overexpression", "conditions": "72 hours", "experimental": "Tissue samples were washed with PBS and fixed with 4% paraformaldehyde at room temperature for 20 minutes, followed by permeabilization and blocking with PBS containing 0.1% Triton X-100 and 5% FBS for 1 hour. After another wash with PBS, immunostaining was performed by incubating the cells with mouse anti-Pin1 (1:1000), or rabbit anti-PML (Santa Cruz; 1:100) primary antibodies at 4° overnight. Primary antibodies were diluted in PBS containing 0.1% Triton X-100, 0.2% BSA, 0.5 mM PMSF, and 1 mM dithiothreitol. […] Samples were nuclear counterstained with 4,6-diamidino-2-phenylindole (DAPI), mounted and visualized with a LSM510 confocal imaging system. For centrosome duplication assays, NIH3T3 cells were used. Cells were synchronized in G1/S phase by adding 10 μg/ml aphidicolin for 24 hours, then fixed with 4% paraformaldehyde at room temperature for 20 minutes. Cells were then stained for centrosomes with anti-γ-tubulin antibodies (Sigma; 1:100) and analyzed by confocal microscopy."}, "[10]": {"test_system": "BMDCs co-cultured with naive CD4+ cells", "test": "IL-33-induced TH2 polarization, BMDC / naive CD4+ T cell coculture", "conditions": "IL-33 50 ng/ml, 5 μM ATRA", "experimental": "BMDCs were isolated from WT or Pin1 KO mice in a 1:5 ratio for 5 days with no antigen being added. […] Supernatants were analyzed for cytokines on day 5.\nTo examine whether Pin1 is required for IL-33-induced TH2 polarization, we evaluated the effects of Pin1 KO derived dendritic cells in IL-33-induced TH2 polarization by co-culturing bone marrow dendritic cells (BMDCs) derived from WT or Pin1 KO mice with WT naïve CD4^+ cells. The cells were treated with IL-33 and resultant IL-5 and IL-13 were measured."}, "GST-Pin1 [11]": {"molecular_target": "T2, GST-Pin1", "test": "chymotrypsin coupled PPlase activity assay, Pin1", "assay_type": "biochemical", "description": "where Km is the Michaelis constant for the used substrate, S is the initial concentration of the substrate in the assay, and the IC50 value is of the inhibitor."}, "IL-33-induced asthma": {"test_system": "IL-33-induced asthma", "test": "IL-33-induced asthma in mice"}, "RAR": {"test_system": "RAR", "test": "transactivation of RAR downstream target genes"}, "[12]": {"test_system": "human normal and breast cancer cell lines", "test": "cell growth of human normal and breast cancer cell lines", "assay_type": "cell-based", "conditions": "72 hours", "method": "(§1) Absorbance was determined at 570 nm.\nTo test this possibility, we chose breast cancer as a model due to the substantial oncogenic role of Pin1 in vitro and in vivo."}, "human APL NB4 cells": {"test_system": "human APL NB4 cells", "test": "NB4 cell growth", "assay_type": "cell-based", "method": "as §1"}, "MDA-MB-231 cells": {"test_system": "MDA-MB-231 cells", "test": "MDA-MB-231 xenograft in nude mice", "text": "In pilot experiments, MDA-MB-231 cells were subcutaneously injected into female nude mice in the flank."}, "MDA-MB-468 cells": {"test_system": "MDA-MB-468 cells", "test": "MDA-MB-468 xenograft in nude mice", "experimental": "Tumor sizes were measured weekly and mice were sacrificed after 7 weeks to collect tumor tissues (37D). […] Pin1 and cyclin D1 in xenograft tumors were assayed by IB (37F)."}, "[13]": {"conditions": "three sensitive cancer cell lines, 72 hours"}, "[14]": {"conditions": "5 or 10 mg 21 day pellets implanted 1 week after inoculation"}, "[15]": {"conditions": "cells stably expressing Flag-Pin1, ATRA implants"}}, "data": [{"smiles": "CC1=C(/C=C/C(C)=C/C=C/C(C)=C/C(=O)O)C(C)(C)CCC1", "note": "[ATRA, (2E,4E,6E,8E)-3,7-dimethyl-9-(2,6,6-trimethylcyclohexen-1-yl)nona-2,4,6,8-tetraenoic acid]", "values": [{"measurement": "Pin1 and PML-RARα expression", "setting": "[1]; 10 μM, 96 hours, micrographs", "result": "reduced Pin1 and PML-RARα expression"}, {"measurement": "PML-RARα level in APL cells", "setting": "[1]; 72 hours", "result": "dose-dependently reduced PML-RARα"}, {"measurement": "inhibition of FKBP12", "setting": "GST-FKBP12", "result": "did not inhibit"}, {"measurement": "PML-RARα level remaining in APL patients' bone marrow", "setting": "Pin1 and PML-RARα; 3 days of ATRA treatment", "result": "~40", "unit": "%"}, {"measurement": "Pin1 level remaining in APL patients' bone marrow", "setting": "Pin1 and PML-RARα; 3 days of ATRA treatment", "result": "~40", "unit": "%"}, {"measurement": "PML-RARα level remaining in APL patients' bone marrow", "setting": "Pin1 and PML-RARα; 10 days of ATRA treatment", "result": "< 10", "unit": "%"}, {"measurement": "Pin1 level remaining in APL patients' bone marrow", "setting": "Pin1 and PML-RARα; 10 days of ATRA treatment", "result": "< 10", "unit": "%"}, {"measurement": "potency in reducing Pin1 levels and stability, comparison", "setting": "Pin1 [2]", "result": "more potent in reducing Pin1 levels and stability than 13cRA"}, {"measurement": "Pin1 protein level", "setting": "Pin1 [2]; immunoblot, not W34/K63A mutant", "result": "dose-dependently down-regulated Pin1"}, {"measurement": "Pin1 mRNA levels", "setting": "Pin1 [2]; quantitative RT-PCR", "result": "no obvious effects"}, {"measurement": "Pin1-enhanced foci formation", "setting": "SKBR3 cells", "result": "dose-dependently and fully inhibited"}, {"measurement": "inhibition of cyclophilin", "setting": "GST-cyclophilin", "result": "did not inhibit"}, {"measurement": "reduction of target gene expression in IRAKM P111A cells", "setting": "DC2.4 cells", "result": "completely abolished"}, {"measurement": "Pin1 expression", "setting": "DC2.4 cells; 5 or 10 μM ATRA for three days before IL-33", "result": "reduced Pin1 expression"}, {"measurement": "expression of IL-6, CXCL2, CSF3 and CCL5 in IRAKM stably expressing cells", "setting": "DC2.4 cells; even at low ATRA dose (5 μM)", "result": "reduced Pin1 expression (FIG. 63D) and the expression of these target genes"}, {"measurement": "reduction of target gene expression in IRAKM S110E cells", "setting": "DC2.4 cells; high ATRA dose (10 μM)", "result": "some degree of reduction in gene expression still persisted"}, {"measurement": "visual lupus-related phenotypes (fur loss, skin inflammation, lymphoid hyperplasia)", "setting": "MRL/lpr lupus prone mice; 5 mg ATRA for 8 weeks from 8 weeks of age", "result": "drastically suppressed"}, {"measurement": "size of spleen and lymph node", "setting": "MRL/lpr lupus prone mice; 14 week-old mouse", "result": "normal size"}, {"measurement": "glomerular deposition of IgG, C3, and CD68", "setting": "MRL/lpr lupus prone mice; mouse, in vivo", "result": "potently inhibited"}, {"measurement": "hyperkeratinosis", "setting": "MRL/lpr lupus prone mice; mouse, in vivo", "result": "potently inhibited"}, {"measurement": "degradation of PML-RARα and Pin1 in RARα, β, γ triple KO MEFs", "setting": "Flag-PML-RARα and Pin1", "result": "induced degradation of PML-RARα and Pin1 similar to that for WT controls"}, {"measurement": "half-life", "setting": "[3]", "result": "~45", "unit": "min"}, {"measurement": "Pin1-induced activation of the cyclin D1 promoter", "setting": "cyclin D1 promoter", "result": "dose-dependently and fully inhibited"}, {"measurement": "effects on normal breast cells", "setting": "[4]; normal cells", "result": "no appreciable effects"}, {"measurement": "protein levels of Pin1 and its substrate oncogenes", "setting": "[4]; [13]", "result": "dose-dependent protein reduction"}, {"measurement": "protein levels of Pin1 substrate tumor suppressors", "setting": "[4]; [13]", "result": "protein induction"}, {"measurement": "Kd", "setting": "Pin1 [5]", "result": 800, "unit": "nM"}, {"measurement": "Pin1 binding in FP assay", "setting": "GST-Pin1 [6]", "result": "dramatically outperformed the other species"}, {"measurement": "competition with TAMRA-conjugated pTide for Pin1", "setting": "GST-Pin1 [6]; TAMRA-labeled probe", "result": "competitive"}, {"measurement": "growth inhibition of Pin1 KO MEFs", "setting": "[7]; Pin1 KO MEFs", "result": "much more resistant"}, {"measurement": "growth inhibition of Pin1 WT MEFs", "setting": "[7]; Pin1 WT MEFs", "result": "relatively high concentrations of ATRA were required"}, {"measurement": "PML-RARα in the bone marrow", "setting": "[8]", "result": "effectively reduced PML-RARα"}, {"measurement": "Pin1 levels in the bone marrow", "setting": "[8]", "result": "reduced Pin1 levels"}, {"measurement": "spleen weights", "setting": "[8]", "result": "nearly at basal levels"}, {"measurement": "Pin1-induced centrosome amplification", "setting": "[9]", "result": "dose-dependently and fully inhibited"}, {"measurement": "TH2 polarization (IL-5 and IL-13 secretion)", "setting": "[10]", "result": "drastically attenuated"}, {"measurement": "inhibition of PPlase activity of Pin1", "setting": "GST-Pin1 [11]", "result": "fully inhibited"}, {"measurement": "Ki", "setting": "GST-Pin1 [11]; Cheng-Prusoff equation, read-out: Ki from PPlase assay", "result": 820, "unit": "nM"}, {"measurement": "IL-33 induced asthma phenotypes (inflammation, airway remodeling, BALF cells)", "setting": "IL-33-induced asthma; 10 mg 21 day ATRA-releasing pellets, 14 days before intranasal IL-33", "result": "dramatically attenuated"}, {"measurement": "BALF IL-12 and TNF-α levels", "setting": "IL-33-induced asthma; same regimen", "result": "no significant effect"}, {"measurement": "BALF IL-13 and -5 levels", "setting": "IL-33-induced asthma; same regimen", "result": "significantly reduced"}, {"measurement": "IRAKM accumulation and nuclear localization in BALF cells", "setting": "IL-33-induced asthma; same regimen", "result": "almost completely abrogated"}, {"measurement": "IRAKM levels in the lung", "setting": "IL-33-induced asthma; same regimen", "result": "reduction of IRAKM levels back to control treated mice"}, {"measurement": "Pin1 protein levels in the lung", "setting": "IL-33-induced asthma; same regimen", "result": "effectively decreased the Pin1 protein levels only after IL-33 was administrated"}, {"measurement": "transactivation of RAR downstream target genes", "setting": "RAR", "result": "effectively and significantly induces transactivation of RAR downstreams"}, {"measurement": "sensitivity of malignant breast cells", "setting": "[12]", "result": "differential susceptibility"}, {"measurement": "sensitivity of non-transformed MCF10A and HMLE cells", "setting": "[12]", "result": "highly resistant"}, {"measurement": "NB4 cell proliferation", "setting": "human APL NB4 cells", "result": "suppressed"}, {"measurement": "antitumor activity, intraperitoneal", "setting": "MDA-MB-231 cells; 12.5 mg/kg i.p. 3 times a week for 8 weeks", "result": "modest antitumor activity"}, {"measurement": "Pin1 and cyclin D1 in xenograft tumors", "setting": "MDA-MB-231 cells; 5 or 10 mg 21 day pellets", "result": "reduced both Pin1 and its substrate cyclin D1"}, {"measurement": "tumor growth, ATRA-releasing pellets", "setting": "MDA-MB-231 cells; [14]", "result": "potently and dose-dependently inhibited tumor growth"}, {"measurement": "endogenous and exogenous Pin1 and cyclin D1 in tumors", "setting": "MDA-MB-231 cells; [15]", "result": "dose-dependently reduced both endogenous and exogenous Pin1, and cyclin D1"}, {"measurement": "tumor growth of Pin1-overexpressing MDA-MB-231 cells", "setting": "MDA-MB-231 cells; [15]", "result": "effectively inhibited by ATRA in a dose-dependent manner"}, {"measurement": "Pin1 and cyclin D1 in xenograft tumors", "setting": "MDA-MB-468 cells; 5 or 10 mg 21 day pellets", "result": "reduced both Pin1 and its substrate cyclin D1"}, {"measurement": "tumor growth, ATRA-releasing pellets", "setting": "MDA-MB-468 cells; [14]", "result": "potently and dose-dependently inhibited tumor growth"}]}]}
